Consider 1 compound from US8232315B2, “Methods for treating drug addiction and improving addiction-related behavior” (SK Biopharmaceuticals Co., Ltd., priority 2009, dated 2012).

The series concerns monkeys trained to discriminate cocaine (0.40 mg/kg) from saline. Briefly: Cocaine drug discrimination (substitution protocol) in rhesus monkeys. Format: in vivo, rhesus monkeys (Macaca mulatta). The conditions noted are these: for ED50: Primates, in Macaca mulatta, cumulative dosing, read-out: ED50 in producing cocaine-appropriate responding; for Effect on response rates: substituting doses of test compound / training dose of cocaine, relative to saline control. An excerpt: Subjects: The subjects were four male rhesus monkeys (Macaca mulatta) each weighing 7.0-8.0 kg. Each monkey was maintained on a diet of 7-12 monkey biscuits (Purina Monkey Chow Jumbo #5037) and one piece of fresh fruit per day. During the week, all food was delivered after the experimental session, whereas on weekends, food was delivered between 9 a.m. and noon. Water was freely available at all times. The room in which the monkeys were housed was maintained on a 12-hr light/dark cycle, with lights on from 7 a.m. to 7 p.m.
Apparatus: Each monkey was housed individually in a well-ventilated, stainless steel chamber (56×71×69 cm). The home cages of all monkeys were modified to include an operant panel (28×28 cm) mounted on the front wall. Three square translucent response keys (6.4×6.4 cm) were arranged 2.54 cm apart in a horizontal row 3.2 cm from the top of the operant panel. Each key could be transilluminated by red or green stimulus lights (Superbright LED'S). In addition, the operant panel supported an externally mounted pellet dispenser (Gerbrands, Model G53 10, Arlington, Mass.) that delivered 1 gm fruit-flavored food pellets (Precision Primate Pellets Formula L/I Banana Flavor, P. J. Noyes Co., Lancaster, N.H.) to a food receptacle mounted on the cage beneath the operant response panel. Operation of the operant panels and data collection were accomplished with IBM-compatible computers and interface systems (MedAssociates; St. Albans, Vt.) located in a separate room.
Discrimination Training: Discrimination training was conducted 5 days per week during daily sessions composed of multiple cycles. Each cycle consisted of a 15-min time-out period followed by a 5-min response period. During the time-out, all stimulus lights were off, and responding had no scheduled consequences. During the response period, the right and left response keys were transilluminated red or green, and monkeys could earn up to 10 food pellets by responding under a FR 30 schedule of food presentation. For all four monkeys in this study, the left key was illuminated green, and the right key was illuminated red. The center key was not illuminated at any time, and responding on the center key had no scheduled consequences. If all available food pellets were delivered before the end of the 5-min response period, the stimulus lights transilluminating the response keys were turned off, and responding had no scheduled consequences for the remainder of the 5-min period.
On training days, monkeys were given an i.m. injection of either saline or 0.40 mg/kg cocaine 5-min after the beginning of each time-out period (i.e., 10 min before the response period). Following the administration of saline, responding on only the green key (the saline-appropriate key) produced food, whereas following administration of 0.40 mg/kg cocaine, only responding on the red key (the drug-appropriate key) produced food. Responses on the inappropriate key reset the FR requirement on the appropriate key. Sessions consisted of 1 to 5 cycles, and if the training dose of cocaine was administered, it was administered only during the last cycle. Thus, training days consisted of 0 to 5 saline cycles followed by 0 to 1 drug cycles.
During each response period, 3 dependent variables were determined using the following equations.
1) Percent injection-appropriate responding prior to delivery of the first reinforcer.
2) Percent injection-appropriate responding for the entire response period.
Monkeys were considered to have acquired cocaine discrimination when the following three criteria were met for 7 of 8 consecutive training sessions: 1) the percent injection-appropriate responding prior to delivery of the first reinforcer was greater than or equal to 80% for all cycles; 2) the percent injection-appropriate responding for the entire cycle was greater than or equal to 90% for all cycles; 3) response rates during saline training cycles were greater than 0.5 responses per second. […]

Entries after “also recorded” stand apart in the source; their conditions may differ. Where two headings read alike, the source gives them in different places.

With `NC(=O)OC[C@H](N)Cc1ccccc1` [test compound, O-carbamoyl-(D)-phenylalaminol], the ED50 (in general, the dose at which the effect has come halfway, by size or by number of responders) (monkey 92N012) is 1.8 mg/kg; the ED50 (monkey 153F) was 5.6 mg/kg; the ED50 (monkey 186F) stood at 13.4 mg/kg; the ED50 (monkey L958) turned out to be 5.6 mg/kg. The Overt behavioral effects entry (across the dose range tested (0.1-18 mg/kg)) is “did not produce noticeable overt behavioral effects”. For the setting “all four monkeys, 0.1-18 mg/kg”, the “Substitution for the cocaine training stimulus” value was “dose-dependent and complete substitution; also recorded: substituted completely”. Further, the “Effect on response rates” value was “increased response rates” (monkey 92N012), “decreased response rates” (monkey 153F) and “had no effect on response rates” (monkey 186F). Also, the “Potency relative to cocaine (fold less potent)” value (rhesus monkeys, cocaine-like behavioral effects) is recorded as “approximately 20 fold”.
